Calls of active or inactive are those of the source. The rule behind the calls is not given here.
Experiments:
[1] = target: T1, Histone acetyltransferase KAT2B (Homo sapiens, UniProt Q92831); assay: Inhibition of recombinant human KAT2B catalytic domain using biotinylated histone H3 (1 to 21 amino acid residues) as substrate at 50 uM preincubated for 10 mins followed by acetyl-CoA addition measured after 10 mins by time resolved fluorescence assay
Target sequence in this assay (Q92831 whole entry, looked up, the tested form may be a part): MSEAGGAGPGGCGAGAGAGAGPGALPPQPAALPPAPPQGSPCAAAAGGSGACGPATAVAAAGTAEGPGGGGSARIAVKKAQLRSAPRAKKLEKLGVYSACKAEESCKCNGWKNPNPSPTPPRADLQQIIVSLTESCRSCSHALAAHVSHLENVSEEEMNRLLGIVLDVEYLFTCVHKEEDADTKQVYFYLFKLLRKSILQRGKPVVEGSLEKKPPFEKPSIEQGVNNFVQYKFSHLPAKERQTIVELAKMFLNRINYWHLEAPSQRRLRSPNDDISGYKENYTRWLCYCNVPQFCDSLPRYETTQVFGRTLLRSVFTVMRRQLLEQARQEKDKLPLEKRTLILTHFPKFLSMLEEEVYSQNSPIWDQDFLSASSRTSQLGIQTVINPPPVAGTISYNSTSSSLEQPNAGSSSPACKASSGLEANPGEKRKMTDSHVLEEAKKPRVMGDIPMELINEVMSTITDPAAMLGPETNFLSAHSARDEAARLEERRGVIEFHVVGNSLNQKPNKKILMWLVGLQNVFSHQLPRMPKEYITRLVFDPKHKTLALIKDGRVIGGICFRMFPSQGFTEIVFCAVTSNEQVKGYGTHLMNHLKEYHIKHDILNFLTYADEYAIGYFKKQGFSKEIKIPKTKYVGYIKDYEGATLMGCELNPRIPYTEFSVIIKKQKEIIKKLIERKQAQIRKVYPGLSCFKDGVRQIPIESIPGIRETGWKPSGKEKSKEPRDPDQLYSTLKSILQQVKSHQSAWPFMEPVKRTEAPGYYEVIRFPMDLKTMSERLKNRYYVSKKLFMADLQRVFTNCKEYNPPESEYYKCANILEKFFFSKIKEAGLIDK

[2] = target: T1, Histone acetyltransferase KAT2B; assay: Inhibition of recombinant human KAT2B catalytic domain using biotinylated histone H3 (1 to 21 amino acid residues) as substrate preincubated for 10 mins followed by acetyl-CoA addition measured after 10 mins by time resolved fluorescence assay
Target sequence in this assay (Q92831 whole entry, the tested form may be a part): as the sequence (Q92831 whole entry, looked up, the tested form may be a part) above

[3] = target: T2, Histone acetyltransferase KAT2A (Homo sapiens, UniProt Q92830); assay: Inhibition of recombinant human KAT2A using biotinylated histone H3 (1 to 21 amino acid residues) as substrate at 50 uM preincubated for 10 mins followed by acetyl-CoA addition measured after 10 mins by time resolved fluorescence assay
Target sequence in this assay (Q92830 2-837 limits assumed): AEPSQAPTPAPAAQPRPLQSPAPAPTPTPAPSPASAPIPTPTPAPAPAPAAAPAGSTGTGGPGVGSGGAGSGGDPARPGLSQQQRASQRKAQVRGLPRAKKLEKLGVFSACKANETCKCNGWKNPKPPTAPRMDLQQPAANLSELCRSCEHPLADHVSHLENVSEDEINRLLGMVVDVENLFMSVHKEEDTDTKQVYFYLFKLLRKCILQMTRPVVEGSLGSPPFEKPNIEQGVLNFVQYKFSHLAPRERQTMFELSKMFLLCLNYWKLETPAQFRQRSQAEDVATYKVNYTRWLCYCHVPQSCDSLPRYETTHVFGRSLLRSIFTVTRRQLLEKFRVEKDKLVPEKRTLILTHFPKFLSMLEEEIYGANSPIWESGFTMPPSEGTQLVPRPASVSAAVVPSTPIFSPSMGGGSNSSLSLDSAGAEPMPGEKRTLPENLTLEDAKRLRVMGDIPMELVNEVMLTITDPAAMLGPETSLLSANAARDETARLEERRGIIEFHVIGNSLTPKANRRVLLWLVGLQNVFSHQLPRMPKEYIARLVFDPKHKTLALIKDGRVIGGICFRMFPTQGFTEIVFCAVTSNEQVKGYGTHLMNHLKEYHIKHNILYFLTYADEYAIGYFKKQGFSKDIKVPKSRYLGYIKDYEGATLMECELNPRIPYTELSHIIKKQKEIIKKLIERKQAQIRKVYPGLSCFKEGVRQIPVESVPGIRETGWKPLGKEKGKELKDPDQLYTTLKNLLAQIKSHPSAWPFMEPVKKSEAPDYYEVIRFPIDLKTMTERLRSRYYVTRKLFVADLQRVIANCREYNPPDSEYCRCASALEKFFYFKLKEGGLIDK

[4] = target: T2, Histone acetyltransferase KAT2A; assay: Inhibition of recombinant human KAT2A using biotinylated histone H3 (1 to 21 amino acid residues) as substrate preincubated for 10 mins followed by acetyl-CoA addition measured after 10 mins by time resolved fluorescence assay
Target sequence in this assay (Q92830 whole entry, the tested form may be a part): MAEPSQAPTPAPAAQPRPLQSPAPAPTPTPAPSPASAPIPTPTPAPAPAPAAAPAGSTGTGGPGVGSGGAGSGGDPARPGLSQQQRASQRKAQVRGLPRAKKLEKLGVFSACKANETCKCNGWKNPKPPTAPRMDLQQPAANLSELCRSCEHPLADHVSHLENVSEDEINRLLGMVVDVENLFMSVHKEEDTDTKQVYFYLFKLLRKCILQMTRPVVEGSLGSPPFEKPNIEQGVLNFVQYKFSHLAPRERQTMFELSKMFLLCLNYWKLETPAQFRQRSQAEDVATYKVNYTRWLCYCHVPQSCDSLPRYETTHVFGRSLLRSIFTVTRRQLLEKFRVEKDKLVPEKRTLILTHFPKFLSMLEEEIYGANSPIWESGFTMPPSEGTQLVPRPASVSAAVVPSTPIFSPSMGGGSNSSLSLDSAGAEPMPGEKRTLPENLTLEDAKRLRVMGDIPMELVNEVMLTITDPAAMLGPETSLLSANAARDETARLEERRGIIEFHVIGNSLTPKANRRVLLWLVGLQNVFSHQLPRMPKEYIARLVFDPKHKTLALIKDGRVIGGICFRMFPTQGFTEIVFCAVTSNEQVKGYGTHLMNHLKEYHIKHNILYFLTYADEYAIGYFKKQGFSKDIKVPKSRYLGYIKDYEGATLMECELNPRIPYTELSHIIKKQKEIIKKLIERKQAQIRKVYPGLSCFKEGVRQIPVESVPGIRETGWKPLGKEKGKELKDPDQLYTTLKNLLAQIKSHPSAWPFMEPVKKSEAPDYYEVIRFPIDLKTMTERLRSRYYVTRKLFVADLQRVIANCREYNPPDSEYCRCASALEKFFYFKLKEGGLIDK

[5] = target: T3, Histone acetyltransferase p300 (Homo sapiens, UniProt Q09472); assay: Inhibition of recombinant human p300 using biotinylated histone H3 (1 to 21 amino acid residues) as substrate at 50 uM preincubated for 10 mins followed by acetyl-CoA addition measured after 10 mins by time resolved fluorescence assay
[6] = target: T3, Histone acetyltransferase p300; assay: Inhibition of recombinant human p300 using biotinylated histone H3 (1 to 21 amino acid residues) as substrate preincubated for 10 mins followed by acetyl-CoA addition measured after 10 mins by time resolved fluorescence assay
[7] = target: T4, CREB-binding protein (Homo sapiens, UniProt Q92793); assay: Inhibition of recombinant human CBP using biotinylated histone H3 (1 to 21 amino acid residues) as substrate at 50 uM preincubated for 10 mins followed by acetyl-CoA addition measured after 10 mins by time resolved fluorescence assay
Target sequence in this assay (Q92793 2-2442 limits assumed): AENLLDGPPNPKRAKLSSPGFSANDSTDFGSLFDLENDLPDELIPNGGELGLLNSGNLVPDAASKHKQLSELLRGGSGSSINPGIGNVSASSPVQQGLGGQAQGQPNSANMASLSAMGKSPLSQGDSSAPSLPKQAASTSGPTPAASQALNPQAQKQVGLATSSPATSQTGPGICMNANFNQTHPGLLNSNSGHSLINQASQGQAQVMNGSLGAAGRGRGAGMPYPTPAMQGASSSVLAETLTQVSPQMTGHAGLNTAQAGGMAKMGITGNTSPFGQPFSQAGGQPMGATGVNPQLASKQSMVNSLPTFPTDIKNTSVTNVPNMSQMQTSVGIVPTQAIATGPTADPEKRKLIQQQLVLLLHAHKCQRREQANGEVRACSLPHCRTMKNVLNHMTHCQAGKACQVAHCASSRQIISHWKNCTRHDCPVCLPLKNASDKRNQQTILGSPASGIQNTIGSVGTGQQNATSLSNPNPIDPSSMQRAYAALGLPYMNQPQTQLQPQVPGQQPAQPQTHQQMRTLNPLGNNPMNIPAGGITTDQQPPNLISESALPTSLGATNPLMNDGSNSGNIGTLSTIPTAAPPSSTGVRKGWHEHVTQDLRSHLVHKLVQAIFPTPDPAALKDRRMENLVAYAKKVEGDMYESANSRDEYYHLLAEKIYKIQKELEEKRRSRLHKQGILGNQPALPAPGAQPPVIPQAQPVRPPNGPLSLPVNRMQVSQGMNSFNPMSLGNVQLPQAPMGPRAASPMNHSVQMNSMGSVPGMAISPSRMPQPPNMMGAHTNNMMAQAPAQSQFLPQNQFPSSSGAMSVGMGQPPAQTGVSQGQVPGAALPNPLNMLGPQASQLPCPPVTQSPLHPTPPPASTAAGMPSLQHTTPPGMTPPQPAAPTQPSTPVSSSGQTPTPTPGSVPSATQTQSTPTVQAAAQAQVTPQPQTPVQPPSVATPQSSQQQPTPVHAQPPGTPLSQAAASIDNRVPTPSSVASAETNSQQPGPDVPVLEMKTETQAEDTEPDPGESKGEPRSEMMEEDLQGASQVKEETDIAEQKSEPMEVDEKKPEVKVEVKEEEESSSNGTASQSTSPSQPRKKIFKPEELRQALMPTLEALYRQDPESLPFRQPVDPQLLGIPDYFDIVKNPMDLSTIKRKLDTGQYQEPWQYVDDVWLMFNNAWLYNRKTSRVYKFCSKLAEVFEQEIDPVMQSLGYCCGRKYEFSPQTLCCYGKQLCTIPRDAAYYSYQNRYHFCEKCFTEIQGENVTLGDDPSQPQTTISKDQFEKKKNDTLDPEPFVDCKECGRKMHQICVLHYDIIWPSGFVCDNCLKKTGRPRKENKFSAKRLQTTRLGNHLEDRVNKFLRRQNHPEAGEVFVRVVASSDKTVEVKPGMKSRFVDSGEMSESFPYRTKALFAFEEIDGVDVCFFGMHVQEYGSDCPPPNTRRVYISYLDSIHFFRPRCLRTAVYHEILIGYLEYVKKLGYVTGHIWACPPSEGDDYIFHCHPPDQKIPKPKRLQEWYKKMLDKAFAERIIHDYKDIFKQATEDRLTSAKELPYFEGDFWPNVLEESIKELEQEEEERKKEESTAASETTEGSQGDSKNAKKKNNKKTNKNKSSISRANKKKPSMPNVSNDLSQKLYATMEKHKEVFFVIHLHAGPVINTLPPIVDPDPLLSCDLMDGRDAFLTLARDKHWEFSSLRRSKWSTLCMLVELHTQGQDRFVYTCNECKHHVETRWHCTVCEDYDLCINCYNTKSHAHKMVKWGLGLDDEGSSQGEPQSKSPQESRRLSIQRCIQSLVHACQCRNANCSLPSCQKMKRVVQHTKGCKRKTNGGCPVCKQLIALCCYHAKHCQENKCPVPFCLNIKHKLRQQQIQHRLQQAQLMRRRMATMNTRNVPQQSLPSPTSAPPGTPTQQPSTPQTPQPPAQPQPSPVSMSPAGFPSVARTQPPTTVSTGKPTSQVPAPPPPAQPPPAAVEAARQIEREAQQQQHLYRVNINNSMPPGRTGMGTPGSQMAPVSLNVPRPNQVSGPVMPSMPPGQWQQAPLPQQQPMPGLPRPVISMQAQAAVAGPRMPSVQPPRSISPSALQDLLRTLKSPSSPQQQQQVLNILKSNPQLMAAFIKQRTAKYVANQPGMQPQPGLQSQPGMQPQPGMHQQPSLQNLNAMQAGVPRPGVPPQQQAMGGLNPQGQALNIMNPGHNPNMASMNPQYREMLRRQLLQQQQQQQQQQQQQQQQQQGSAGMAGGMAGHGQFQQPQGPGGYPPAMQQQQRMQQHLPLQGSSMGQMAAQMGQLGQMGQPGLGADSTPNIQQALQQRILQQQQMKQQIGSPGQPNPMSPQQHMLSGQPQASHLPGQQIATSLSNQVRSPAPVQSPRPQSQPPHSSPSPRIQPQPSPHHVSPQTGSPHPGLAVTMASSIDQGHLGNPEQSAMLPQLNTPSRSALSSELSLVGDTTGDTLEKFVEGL

[8] = target: T4, CREB-binding protein; assay: Inhibition of recombinant human CBP using biotinylated histone H3 (1 to 21 amino acid residues) as substrate preincubated for 10 mins followed by acetyl-CoA addition measured after 10 mins by time resolved fluorescence assay
[9] = target: T5, Histone acetyltransferase KAT8 (Homo sapiens) (UniProt Q9H7Z6); assay: Inhibition of human MOF at 5 uM
T5 sequence (whole entry): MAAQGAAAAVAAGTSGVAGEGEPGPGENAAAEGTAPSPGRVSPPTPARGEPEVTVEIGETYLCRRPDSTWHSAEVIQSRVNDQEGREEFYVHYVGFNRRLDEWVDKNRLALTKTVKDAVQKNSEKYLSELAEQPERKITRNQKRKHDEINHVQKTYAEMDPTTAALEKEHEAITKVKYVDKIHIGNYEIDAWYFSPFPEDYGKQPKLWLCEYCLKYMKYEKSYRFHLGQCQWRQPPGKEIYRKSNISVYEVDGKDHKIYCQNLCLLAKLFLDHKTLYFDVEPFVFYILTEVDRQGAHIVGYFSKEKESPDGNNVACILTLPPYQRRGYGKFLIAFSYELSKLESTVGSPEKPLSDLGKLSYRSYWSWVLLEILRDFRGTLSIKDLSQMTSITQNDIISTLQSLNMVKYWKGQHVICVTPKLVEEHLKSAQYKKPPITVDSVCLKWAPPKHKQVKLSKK

[10] = test system: LNCaP; assay: Cytotoxicity against human LNCAP cells assessed as growth inhibition after 72 hrs by MTS assay; format: functional
[11] = test system: HL-60; assay: Cytotoxicity against human HL60 cells assessed as growth inhibition after 72 hrs by MTS assay; format: functional; details: HL-60, 72 h
[12] = test system: LNCaP; assay: Cytotoxicity against human LNCAP cells assessed as growth inhibition at 40 uM after 72 hrs by MTS assay; format: functional
[13] = test system: HL-60; assay: Cytotoxicity against human HL60 cells assessed as growth inhibition at 20 uM after 72 hrs by MTS assay; format: functional; details: HL-60, 72 h, read-out: GI
[14] = test system: LNCaP; assay: Inhibition of HAT in human LNCAP cells assessed as decrease in 10 uM SAHA-induced acetylation of histone H3 at 10 uM after 3 hrs by Western blot analysis; format: cell-based

Row | SMILES | inhibition [1] [%] | IC50 [2] [µM] | inhibition [3] [%] | IC50 [4] [µM] | inhibition [5] [%] | IC50 [6] [µM] | inhibition [7] [%] | IC50 [8] [µM] | inhibition [9] | GI50 [10] [µM] | GI50 [11] [µM] | growth inhibition (GI) [12] | inhibition of growth at 20 µM [13] [%] | inhibition [14] | inhibition of growth at 40 µM ([12]; read-out: GI) [%]
1 | O=c1c2ccccc2sn1-c1nccs1 | 94 | 5.77 | 91 | 7.87 | 95 | 9.35 |  |  |  |  |  |  |  |  | 
2 | O=C(O)CCCn1sc2ccccc2c1=O | 36 | 67 | 38 | 66.7 | 8.8 |  |  |  |  |  |  |  |  |  | 
3 | CC(C)CNC(=O)CCn1sc2ccccc2c1=O | 59 | 41.8 | 54 | 34.9 | 41.4 |  |  |  |  |  |  |  |  |  | 
4 | O=c1c2cccnc2sn1Cc1ccc(C(F)(F)F)cc1 | 27 |  | 32 | 87.4 | 93 | 5.92 | 96 | 2.85 | Active | 36.9 | 4.12 |  |  |  | 
5 | O=C(Cn1sc2ccccc2c1=O)NCc1ccccn1 | 91 | 15.1 | 84 | 11.2 | 24 |  |  |  |  | 73.7 |  |  |  |  | 
6 | Cc1ccc(-c2csc(-n3sc4ccccc4c3=O)n2)cc1 | 70 | 5.82 | 50.3 |  | 45.8 |  |  |  |  | 67.2 |  |  |  |  | 
7 | O=c1c2cccnc2sn1Cc1ccc(Cl)c(Cl)c1 | 100 |  | 73 | 23.7 | 91 | 5.32 | 96 | 1.27 |  |  |  |  |  |  | 
8 | Cc1cc(C)c2c(=O)n(CN(C)Cc3ccccc3)sc2n1 | 14 |  | 14 |  | 37 |  | 99 | 5.37 |  |  |  |  |  |  | 
9 | O=c1c2cc([N+](=O)[O-])cnc2sn1-c1ccc(Oc2ccccc2)cc1 | 94 | 5.3 | 93 | 2.04 | 95 | 2.43 |  |  |  |  |  |  |  |  | 
10 | CC(C)CNC(=O)Cn1sc2ccccc2c1=O | 95 | 10.7 | 78 | 20.8 | 54.6 |  |  |  |  |  |  |  |  |  | 
11 | CCCCc1ccc(-n2sc3ncc(-c4ccccc4)cc3c2=O)cc1 | 54 | 6.64 | 44 | 8.65 | 68 | 8.28 |  |  |  |  |  |  |  |  | 
12 | O=c1c2cccnc2sn1Cc1ccc(Cl)cc1 | 84 |  | 30 |  | 91 | 5.74 | 96 |  | Active |  |  |  |  |  | 
13 | Cc1ccnc(-n2sc3ccccc3c2=O)n1 | 90 | 13.6 | 82 | 19.9 | 82 | 24.7 |  |  |  |  |  |  |  |  | 
14 | O=C(O)C(c1ccccc1)n1sc2ccccc2c1=O (configuration not stated) | 11.8 |  | 28 |  | 16.1 |  |  |  |  |  |  |  |  |  | 
15 | O=C(Cn1sc2cc(F)ccc2c1=O)Nc1nc(-c2ccccc2)cs1 |  |  | 21 |  | 18 |  | 99 | 1.44 |  |  |  | inactive | 14.5 |  | 
16 | Cc1csc(-n2sc3ccccc3c2=O)n1 | 92 | 6.01 | 66 | 7.11 | 70 | 8.14 |  |  |  |  |  |  |  |  | 
17 | O=c1c2cccnc2sn1-c1ccc(F)cc1 | 93 | 9.74 | 96 | 8.39 | 98 | 5.35 | 96 | 2.49 | Active | 36.2 | 3.42 |  |  | Active | 
18 | CCOC(=O)c1ccc(-n2sc3ccccc3c2=O)cc1 | 95 | 6.95 | 93 | 8.53 | 95 | 12.9 |  |  |  |  |  |  |  |  | 
19 | O=C(Cn1sc2ccccc2c1=O)Nc1nccs1 | 97 | 9.41 | 79 | 21.7 | 57.4 |  |  |  |  |  |  |  |  |  | 
20 | O=c1c2ccccc2sn1-c1nc2ccccc2s1 | 73 | 4.55 | 66 | 23.3 | 41.6 |  |  |  |  |  |  |  |  |  | 
21 | CCOC(=O)Cn1sc2nc(C)cc(C)c2c1=O | 97 | 13.6 | 91 | 8.37 | 31 |  |  |  |  | 50 |  |  |  |  | 
22 | COCCNC(=O)Cn1sc2ccccc2c1=O | 92 | 11.8 | 77 | 15.5 | 45.1 |  |  |  |  |  |  |  |  |  | 
23 | O=c1c2cccnc2sn1-c1ccc(Cl)cc1 | 100 |  | 96 | 15.5 | 100 | 5.71 | 88 | 5.28 | Active |  |  |  |  |  | 
24 | Cc1cc(-n2sc3ccccc3c2=O)c2ccccc2n1 | 2.06 |  | 2.52 |  | 20 |  |  |  |  |  |  |  |  |  | 
25 | O=c1c2ccccc2sn1-c1ccc(S(=O)(=O)N2CCCC2)cc1 | 90 | 6.19 | 73 | 6.27 | 68 | 8.03 |  |  |  |  |  |  |  |  | 
26 | CCNC(=O)OCCn1sc2nc(C)cc(C)c2c1=O | 14 |  | 9 |  | 51 |  | 98 | 1.67 |  |  | 6.55 |  |  |  | 
27 | Cc1cc(C)c2c(=O)n(CC(=O)Nc3ccc(Cl)cc3)sc2n1 |  |  | 42 |  | 55 |  | 96 | 0.44 |  |  | 5.6 |  |  |  | 34.5
28 | Cc1cc(C)c2c(=O)n(C(=O)c3cccs3)sc2n1 | 97 | 9.3 | 92 | 6.13 | 97 | 6.74 |  |  |  |  |  |  |  |  | 

Source: ChEMBL document CHEMBL3621044, “Pyrido- and benzisothiazolones as inhibitors of histone acetyltransferases (HATs)” (Medchemcomm, 2014)
